The values that follow come from publication PMC10534582, “A Pharmacokinetic Study of Sixteen Major Bioactive Components of Jinshui-Huanxian Granules in Pulmonary Fibrosis Model and Control Rats Using Orbitrap Fusion Mass Spectrometry” (Molecules, 2023).

Like-named read-outs stand apart in the source and are kept apart here. Bounds are passed on as bounds.

This data set can be described thus: Pharmacokinetics of JHG components in pulmonary fibrosis (PF) model rats after intragastric administration of JHGs (plasma, Orbitrap Fusion MS). The data set is classed as in vivo, Sprague Dawley (SD) rats. The conditions noted are these: for Cmax, PF model group compared with the control group: medium dose selected for comparison; for AUCs, PF model group compared with the control group: p < 0.05; for Tmax / half-life / MRT last / Cmax / AUC(0-inf) / AUC(0-t) / MRT inf: male, rat, plasma, po; for pharmacokinetic process (versus dosage): low, medium, high doses of JHGs; for MRT last: read-out: MRT(0-t); for Cmax: intragastric JHGs; for MRT inf: read-out: MRT(0-∞). The procedure, abridged:
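Fasted male SD rats, healthy or bleomycin-induced PF (5 mg/kg intratracheal, dosed at day 28), received oral JHGs at 10.8, 21.6 or 43.2 g raw drug/kg. Tail-vein plasma was taken from 0.083 to 24 h, extracted with methanol, and quantified by C18 LC–Orbitrap MS (ESI, SIM) against an internal standard.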

Setting [1] is: Sprague-Dawley, PF model rats, after administration of JHGs, read-out: Tmax of all dosages.
Setting [2] is: PF model rats, JHGs high dose 22.81 g/kg/d.
[3] abbreviates: PF model rats, JHGs low dose 5.70 g/kg/d.
[4] abbreviates: PF model rats, JHGs medium dose 11.41 g/kg/d.
[5] abbreviates: Sprague Dawley, 5.7 g/kg/day, PF model rats, JHGs low dose 5.70 g/kg/d.
Setting [6] is: Sprague Dawley, 5.7 g/kg/day, PF model rats, JHGs low dose 5.70 g/kg/d, read-out: Tmax.
The mark [7] stands for this setting: Sprague Dawley, 5.7 g/kg/day, PF model rats, low dose 5.70 g/kg/d, n=6 (1st of 3 stacked values).
Setting [8] is: Sprague Dawley, 11.41 g/kg/day, PF model rats, JHGs medium dose 11.41 g/kg/d.
Where [9] appears, read: Sprague Dawley, 11.41 g/kg/day, PF model rats, JHGs medium dose 11.41 g/kg/d, read-out: Tmax.
Where [10] appears, read: Sprague Dawley, 11.41 g/kg/day, PF model rats, medium dose 11.41 g/kg/d, n=6 (2nd of 3 stacked values).
Setting [11] is: Sprague Dawley, 22.81 g/kg/day, PF model rats, JHGs high dose 22.81 g/kg/d.
Where [12] appears, read: Sprague Dawley, 22.81 g/kg/day, PF model rats, JHGs high dose 22.81 g/kg/d, read-out: Tmax.
Setting [13] is: Sprague-Dawley, 5.7 g/kg/day, PF model rats, JHGs low dose 5.70 g/kg/d.
The mark [14] stands for this setting: Sprague-Dawley, 11.41 g/kg/day, PF model rats, JHGs medium dose 11.41 g/kg/d.
Setting [15] is: Sprague-Dawley, 22.81 g/kg/day, PF model rats, JHGs high dose 22.81 g/kg/d.
Setting [16] is: Sprague-Dawley, 22.81 g/kg/day, PF model rats, high dose 22.81 g/kg/d, n=6 (3rd of 3 stacked values).

With `O=c1cc(-c2ccc(O)cc2)oc2cc(OC3OC(CO)C(O)C(O)C3O)cc(O)c12` (stereo not drawn) [Apigenin-7-glucoside], under “PF model vs control rats”, the “Tmax, PF model group compared with the control group” value was “decreased significantly”; the “Cmax, PF model group compared with the control group” value is “significantly decreased”; the “AUCs, PF model group compared with the control group” value is on record as “significantly decreased”. Besides, the Tmax (commonly the time from dosing to the highest level) under setting [1] is at most 2 h.

Regarding `O=c1cc(-c2ccc(O)c(O)c2)oc2cc(O[C@@H]3O[C@H](CO)[C@@H](O)[C@H](O)[C@H]3O)cc(O)c12` [Cynaroside], for the setting “PF model rats”, the “Cmax and AUCs (AUC(0–t), AUC (0–∞)) compared among the analytes” value is reported as “highest”; the “correlation between CL, AUC, t½, and dose” value was “there was a correlation”; the “pharmacokinetic process (versus dosage)” value was “linear pharmacokinetic process”. Besides, where the note is “PF model vs control rats”, the “AUC(0–t) in the model group relative to the control group” value is recorded as “approximately twice as high” and the “Cmax in the model group relative to the control group” value is given as “approximately twice as high”.

Turning to `COc1ccc(-c2cc(=O)c3c(OC)c(OC)c(OC)c(OC)c3o2)cc1OC` [Nobiletin], the Clearances under setting [2] was 1307 ± 264.2 mL/min/kg, the Clearances under setting [3] came to 119 ± 11.8 mL/min/kg and the Clearances under setting [4] stood at 327.5 ± 83.7 mL/min/kg. Moreover, the Vss (usually the apparent volume that relates the amount in the body to the concentration in plasma or blood) reads like this: under setting [2], 864 ± 195.9 L; under setting [3], 166.86 ± 26.65 L; under setting [4], 769.75 ± 168.2 L. The half-life (in general, the time needed for the level to fall by half in the phase considered) was 17.6 ± 1.82 h under setting [5], 31.5 ± 13.3 h under setting [8] and 9.59 ± 3.39 h under setting [11]. For the same molecule, the MRT last by setting is: under setting [5], 8.86 ± 0.2 h; under setting [8], 9.13 ± 0.25 h; under setting [15], 6.66 ± 0.35 h. Further, the Tmax runs as follows: under setting [6], 0.75 h; under setting [9], 0.75 h; under setting [12], 0.75 h; under setting [1], at most 2 h. The Cmax (commonly the highest concentration seen after dosing) is 2.97 ± 0.67 ng/mL under setting [7], 3.37 ± 0.53 ng/mL under setting [10] and 3.57 ± 0.3 ng/mL under setting [16]. Further, the AUC(0-inf) (in general, total exposure, with the tail of the curve extrapolated) reads like this: under setting [13], 33.4 ± 4.41 ng·h/mL; under setting [14], 43.1 ± 11.1 ng·h/mL; under setting [15], 18 ± 3.39 ng·h/mL. The AUC(0-t) (in general, the area under the concentration-time curve up to a stated or last time point) came out at 21.6 ± 3.48 ng·h/mL under setting [13], 20 ± 2.62 ng·h/mL under setting [14] and 15.5 ± 2.99 ng·h/mL under setting [15]. For the same molecule, the MRT inf runs as follows: under setting [13], 23.2 ± 2.12 h; under setting [14], 41.8 ± 18.4 h; under setting [15], 11.1 ± 1.44 h.

The molecule `COc1ccc(C(C)=O)c(O)c1` [Paeonol] gave a Clearances under setting [2] of 4714 ± 1513 mL/min/kg, a Clearances under setting [3] of 1560 ± 427.7 mL/min/kg and a Clearances under setting [4] of 5269.7 ± 1130 mL/min/kg. Besides, the Vss came out at 12017.41 ± 3866.6 L under setting [2], 2980.29 ± 449.33 L under setting [3] and 8115.77 ± 895.52 L under setting [4]. Moreover, for the setting “PF model vs control rats”, the “Cmax, PF model group compared with the control group” value is “significantly decreased”. For the same molecule, the “AUCs, PF model group compared with the control group” value (PF model vs control rats) is recorded as “significantly decreased”. Also, the half-life reads like this: under setting [5], 25.5 ± 8.84 h; under setting [8], 19.2 ± 6.63 h; under setting [11], 36.4 ± 25.6 h. Further, the MRT last by setting is: under setting [5], 9.14 ± 0.1 h; under setting [8], 9.7 ± 0.37 h; under setting [15], 9.41 ± 0.4 h. Besides, the Tmax is 0.5 h under setting [6], 0.75 h under setting [9], 3 h under setting [12] and at most 2 h under setting [1]. The peak level under setting [7] (Cmax) was 2.79 ± 0.6 ng/mL, the Cmax under setting [10] stood at 3.16 ± 0.22 ng/mL and the Cmax under setting [16] was 3.63 ± 0.33 ng/mL. Besides, the AUC(0-inf) is 41.8 ± 12.1 ng·h/mL under setting [13], 41.6 ± 9.78 ng·h/mL under setting [14] and 83.4 ± 34.3 ng·h/mL under setting [15]. The molecule also displayed an AUC(0-t) under setting [13] of 21.8 ± 2.86 ng·h/mL, an AUC(0-t) under setting [14] of 24.5 ± 2.15 ng·h/mL and an exposure AUC(0-t) under setting [15] of 35 ± 1.86 ng·h/mL. For the same molecule, the MRT inf runs as follows: under setting [13], 33.8 ± 11.4 h; under setting [14], 26.9 ± 8.95 h; under setting [15], 49.6 ± 33.3 h.

Take `CC1=C2CC3C(CC(=O)C4CC(O)CCC43C)C2CCC12OC1CC(C)CNC1C2C` (stereo not drawn) [Peimisine]: the Clearances by setting is: under setting [2], 5.83 ± 1 mL/min/kg; under setting [3], 2.33 ± 0.33 mL/min/kg; under setting [4], 4.33 ± 0.83 mL/min/kg. Besides, the Vss runs as follows: under setting [2], 4.24 ± 0.61 L; under setting [3], 1.62 ± 0.32 L; under setting [4], 2.91 ± 0.52 L. The “pharmacokinetic process (versus dosage)” value (PF model rats) was “linear pharmacokinetic process”. In addition, the “MRT(0–t), PF model group compared with the control group” value (PF model vs control rats) is given as “decreased”. The half-life is, setting by setting: under setting [5], 7.2 ± 0.28 h; under setting [8], 8.25 ± 0.94 h; under setting [11], 5.96 ± 0.23 h. The MRT last reads like this: under setting [5], 7.56 ± 0.17 h; under setting [8], 7.92 ± 0.2 h; under setting [15], 9.84 ± 0.24 h. Further, the Tmax came out at 1.5 h under setting [6], 3.67 ± 0.58 h under setting [9] and 8 h under setting [12]. In addition, the Cmax is, setting by setting: under setting [7], 2.05 ± 0.49 ng/mL; under setting [10], 2.51 ± 0.55 ng/mL; under setting [16], 2.76 ± 0.48 ng/mL. Further, the AUC(0-inf) by setting is: under setting [13], 14.6 ± 2.48 ng·h/mL; under setting [14], 26.8 ± 5.8 ng·h/mL; under setting [15], 33.1 ± 6.82 ng·h/mL. Further, the AUC(0-t) was 12.3 ± 2.23 ng·h/mL under setting [13], 23.4 ± 5.01 ng·h/mL under setting [14] and 29.7 ± 5.82 ng·h/mL under setting [15]. The MRT inf by setting is: under setting [13], 11.8 ± 0.51 h; under setting [14], 11.4 ± 1.05 h; under setting [15], 12.2 ± 0.39 h.
